Reference: patent US8193223B2, “1,2,3-triazole derivatives as sigma receptor inhibitors” (Laboratorios Del Dr. Esteve, S.A., priority 2006, dated 2012)

Target: T1, sigma-1 receptor (Cavia porcellus, UniProt Q60492)
T1 construct: from tissue; host or cells: guinea pig brain membranes
Assay: [3H](+)-pentazocine binding assay for the sigma-1 receptor in guinea pig brain membranes
Conditions: [3H](+)-pentazocine 0.5 nM; for Sigma-1 Inhibition percent (0.01 μM): compound 0.01 μM; for Sigma-1 Inhibition percent (0.1 μM): compound 0.1 μM
Description: Some of the compounds synthesized according to the procedures described above were tested for their activity as sigma-1 inhibitors. The following protocol was followed:
Brain membrane preparation and binding assays for the […] were performed as described (DeHaven-Hudkins et al., 1992) with some modifications. In brief, guinea pig brains were homogenized in 10 vols. (w/v) of Tris-HCl 50 mM 0.32 M sucrose, pH 7.4, with a Kinematica Polytron PT 3000 at 15000 r.p.m. for 30 s. The homogenate was centrifuged at 1000 g for 10 min at 4° C. and the supernatants collected and centrifuged again at 48000 g for 15 min at 4° C. The pellet was resuspended in 10 volumes of Tris-HCl buffer (50 mM, pH 7.4), incubated at 37° C. for 30 min, and centrifuged at 48000 g for 20 min at 4° C. Following this, the pellet was resuspended in fresh Tris-HCl buffer (50 mM, pH 7.4) and stored on ice until use.
Each assay tube contained 10 μL of [^3H](+)-pentazocine (final concentration of 0.5 nM), 900 μL of the tissue suspension to a final assay volume of 1 mL and a final tissue concentration of approximately 30 mg tissue net weight/mL. Non-specific binding was defined by addition of a final concentration of 1 μM haloperidol. All tubes were incubated at 37° C. for 150 min before termination of the reaction by rapid filtration over Schleicher & Schuell GF 3362 glass fibre filters [previously soaked in a solution of 0.5% polyethylenimine for at least 1 h]. Filters were then washed with four times with 4 mL of cold Tris-HCl buffer (50 mM, pH 7.4). Following addition of scintillation cocktail, the samples were allowed to equilibrate overnight. The amount of bound radioactivity was determined by liquid scintillation spectrometry using a Wallac Winspectral 1414 liquid scintillation counter. Protein concentrations were determined by the method of Lowry et al. (1951).

T1 sequence (Q60492 whole entry): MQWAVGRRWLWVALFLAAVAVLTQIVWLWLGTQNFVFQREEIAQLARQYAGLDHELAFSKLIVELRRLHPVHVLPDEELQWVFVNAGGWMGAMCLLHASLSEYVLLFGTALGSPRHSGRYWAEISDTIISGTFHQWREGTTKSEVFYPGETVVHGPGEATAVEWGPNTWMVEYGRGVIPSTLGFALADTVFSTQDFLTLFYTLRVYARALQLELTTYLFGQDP

Row | SMILES | Sigma-1 Inhibition percent (0.01 μM) | Sigma-1 Inhibition percent (0.1 μM)
1 | Clc1ccc(-c2nn(CCCN3CCCCCC3)nc2-c2ccccc2)cc1 [compound 6] | 36.5 | 52.5
2 | Clc1ccc(-c2nn(CCCCN3CCCCC3)nc2-c2ccccc2)cc1 [compound 10] | 26.1 | 59.1
3 | Fc1cc(Br)ccc1-c1cnn(CCCN2CCCCC2)n1 [compound 21] | 25.8 | 83.4
4 | c1ccc(-c2cnn(CCCN3CCCCC3)n2)cc1 [compound 20] | 43.6 | 82.2
5 | Cc1nn(CCCN2CCCCC2)nc1-c1ccccc1 [compound 19] | 31.2 | 78.5
